Measured values reported in US11850259B2, “Methods of treating viral infections affecting the respiratory tract using topically administered lithium agents” (United States Government as Represented by the Department …, priority 2020, dated 2023).
Like-named read-outs stand apart in the source and are kept apart here.

Columns and labels:
[1] = serum of subjects tested; cited from earlier work
[2] = tested on: MSU-induced gout in the rat ankle; conditions: photomicrograph at 2-times magnification after topical administration
Description: It was anticipated that the pathology may bring additional clarity to show lithium carbonate's action on the cytokine storm. Rat ankle samples banked in formalin were sent for microscopic analysis.

GSK3B = GSK3B (Homo sapiens, UniProt P49841); conditions: in neutrophils; cited from earlier work
[3] = applied to the epithelium of the skin, gout model
Description: Once that occurred, the lithium acted on the tissues and blood vessels surrounding the joint, preventing the entry of the inflammatory cells into the joint.

[4] = tested on: MSU-induced gout in the rat ankle; conditions: for KC-GRO (KC/GRO) level: synovial fluid, eight hours post MSU-induced gout
[5] = BRT rat MSU model, eight hours post MSU, topical application

GSK3B, sequence (P49841 whole entry, species assumed): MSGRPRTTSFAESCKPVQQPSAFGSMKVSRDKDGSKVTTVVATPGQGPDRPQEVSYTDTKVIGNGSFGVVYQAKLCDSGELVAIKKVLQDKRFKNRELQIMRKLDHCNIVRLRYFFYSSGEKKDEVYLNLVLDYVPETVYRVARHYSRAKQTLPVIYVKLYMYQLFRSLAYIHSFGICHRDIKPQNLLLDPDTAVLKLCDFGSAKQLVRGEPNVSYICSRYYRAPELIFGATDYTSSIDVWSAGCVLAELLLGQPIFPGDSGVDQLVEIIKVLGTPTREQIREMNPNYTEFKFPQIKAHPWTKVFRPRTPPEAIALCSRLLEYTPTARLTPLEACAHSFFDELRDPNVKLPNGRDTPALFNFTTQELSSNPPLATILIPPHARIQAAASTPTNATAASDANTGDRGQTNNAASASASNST

In the case of `O=C([O-])[O-].[Li+].[Li+]` [lithium carbonate], the IL-1β in serum [1] is given as “consistent increase”, the IL-6 in serum [1] is given as “consistent increase” and the TNF-α in serum [1] is given as “consistent increase”. The Edema [2] was “minimal edema”, the “Raft of white blood cells” value [2] was “only a very small raft of white blood cells” and the Synovial hypertrophy [2] was “minimal synovial hypertrophy”. The “Increase of TNF-α protein synthesis” value (GSK3B) was greater than 3 fold, the “Penetration of skin epithelium” value [3] was “penetrated to the synovium” and the IL-1β level [4, 5] was “induction”. The IL-6 level [4, 5] was “induction”, the TNF-α level [4, 5] was “induction” and the “KC-GRO (KC/GRO) level” value ([4]; rat ankle, topical application) was “Attenuation”. The “KC-GRO (KC/GRO) level” value ([4]; rat ankle, topical application, listed as lithium) was “surprisingly lessened” and the Effect on gout ([4]; topical application of 2% lithium carbonate, rat ankle) was “attenuated gout”.
